# Experimental data from patent US12274693B2, “Anti-proprotein convertase subtilisin kexin type 9 (anti-PCSK9) nano-formulation of compounds and methods of using the same” (SHIFA BIOMEDICAL CORPORATION, priority 2018, dated 2025).
# Values joined by “and” are separate entries in the source; they are usually repeats but may differ in a detail not shown here. Identical values can stand only once. Like-named read-outs stand apart in the source and are kept apart here.
# Tests used:
# LDLR = assay: Cell-based assay for LDLR upregulation; details: compared to cells treated with same volume of DMSO
# HepG2 cells = assay: Uptake of fluorescent Dil-LDL in HepG2 cells; format: cell-based; details: 10 μM
# Text: FIG. 5 provides a graph of the effect of SBC-115,418, SBC-115,433, SBC-115,448, and SBC-115,462 on the uptake of fluorescent Dil-LDL in HepG2 Cells. The compounds were validated for their ability to increase uptake of Fluorescent Dil-LDL in HepG2 cells.
# [1] = target: T1, PCSK9/LDLR interaction (His-tagged PCSK9, recombinant LDLR-AB domain) (Homo sapiens, UniProt Q8NBP7); assay: In vitro ELISA binding assay (Circulex) for inhibition of the PCSK9/LDLR interaction; details: for IC50 for inhibition of the PCSK9/LDLR interaction, range in words: FIG. 4A
# T1 construct: purchased Circulex
# Procedure: FIG. 4A provides a graph of the effect of SBC-115,418, SBC-115,433, SBC-115,448, and SBC-115,462 on the PCSK9/LDLR interaction. An in vitro ELISA assay kit was utilized (Circulex). For screening inhibitors of the PCSK9/LDLR interaction, different concentrations (0.01 nM-100 μM) of selected compounds were incubated with His-tagged PCSK9 and then added to wells that were pre-coated with recombinant LDLR-AB domain. After incubation, the plate was washed and the amount of recombinant His-tagged PCSK9 was measured using the biotinylated anti-His-tag and horseradish peroxidase conjugated Streptavidin and quantitated using a BioTek Synergy™ 2 plate reader. The effect of each compound on the PCSK9 binding to the recombinant LDLR-AB domain was calculated.
# FIG. 4B provides a graph of the effect of SBC-115,418 on the PCSK9/LDLR interaction under increased solubilization conditions (10% DMSO) (418s). An in vitro ELISA assay (Circulex) was utilized. Different concentrations ([…]-100 μM) of SBC-115,418 in DMSO were incubated with His-tagged PCSK9 and then added to wells that were pre-coated with recombinant LDLR-AB domain as described in FIG. 4A.
# (§1) Testing of SBC-115,418 and analogs was performed in a binding assay to determine their ability to inhibit the PCSK9/LDLR interaction. SBC-115,418 inhibited the PCSK9/LDLR interaction with an IC50 in the sub-micro-molar range. Experimental details are provided hereinabove and in WO 2017/222953. […] Given the lipophilicity of lead compound SBC-115,418, a solubility study was undertaken to look at its effects on binding (FIG. 4B). An in vitro ELISA binding assay was performed at different concentrations (0.01 μM-100 μM) of SBC-115,418 under different solubilization conditions.
# [2] = Lipophilicity and solubility of the compounds; format: physicochemical
# Procedure: [formula] The size distribution of the nanoparticles in aqueous dispersions was determined using a Malvern zeta sizer (Malvern Instrumentation Co, Westborough, MA). 50 mg of the lyophilized nanoparticles were re-suspended in 2 mL of water. This nanoparticles solution was placed into a 3 mL, 4-sided, clear plastic cuvette, and measured directly. Shown are the HPLC chromatograms of SBC-115,418 used to construct the standard curve at different concentrations. Calibrator series of SBC-115,418 were prepared in DMSO by a 2-fold series dilution including 3.9, 7.8, 15.6, 31.5, 62.5, 125, and 250 μg/mL (left).
# as §1
# PCSK9 = assay: Test for secreted PCSK9 (synthesis, processing and secretion); format: cell-based; details: in the cells or into the media
# Text: Experimental details are provided hereinabove and in WO 2017/222953.
# [3] = ELISA, read-out: in vitro inhibition of the PCSK9/LDLR interaction (IC50)
# T1 sequence (Q8NBP7 153-692): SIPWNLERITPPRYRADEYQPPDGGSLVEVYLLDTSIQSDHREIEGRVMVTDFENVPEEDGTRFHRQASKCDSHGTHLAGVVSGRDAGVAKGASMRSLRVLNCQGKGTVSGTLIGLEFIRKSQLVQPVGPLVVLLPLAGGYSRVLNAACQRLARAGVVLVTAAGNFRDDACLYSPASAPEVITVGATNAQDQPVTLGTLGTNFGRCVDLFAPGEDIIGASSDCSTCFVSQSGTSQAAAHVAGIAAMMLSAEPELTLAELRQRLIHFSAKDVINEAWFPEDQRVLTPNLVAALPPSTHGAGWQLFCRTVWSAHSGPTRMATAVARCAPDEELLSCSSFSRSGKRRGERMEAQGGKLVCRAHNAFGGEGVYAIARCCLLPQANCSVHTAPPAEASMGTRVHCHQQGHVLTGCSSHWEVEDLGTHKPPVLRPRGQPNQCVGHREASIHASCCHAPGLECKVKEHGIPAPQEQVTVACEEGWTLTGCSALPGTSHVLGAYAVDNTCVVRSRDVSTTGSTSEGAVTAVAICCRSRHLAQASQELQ
# T1 sequence (Q8NBP7 31-152 partner limits assumed): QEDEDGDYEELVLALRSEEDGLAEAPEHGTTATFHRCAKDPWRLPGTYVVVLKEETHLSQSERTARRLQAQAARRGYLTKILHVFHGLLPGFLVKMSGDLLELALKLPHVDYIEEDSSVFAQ
Structure (SMILES),"IC50 for inhibition of the PCSK9/LDLR interaction, range in words ([1]; ELISA)","IC50 [1, 3]","IC50 ([1]; increased solubilization conditions (10% DMSO), FIG. 4B, read-out: IC50 of in vitro binding under improved solubility conditions) [µM]","solubility ([2]; 80% acetonitrile, organic solvent or mixture) [µg/mL]",logP [2],"solubility relative to SBC-115,418 [2]",level of LDLR versus DMSO control (LDLR),Fluorescent Dil-LDL uptake (HepG2 cells),"effect on PCSK9 synthesis, processing and secretion (PCSK9)"
"COc1ccc2oc(C(=O)Nc3ccc(C(=O)Nc4ccc(-c5nc6ccccc6o5)cc4)cc3)c(C)c2c1 [SBC-115,418]",sub-micro-molar,< 5 µM,0.05,< 100,–,–,significant upregulation,significant increase,no significant effect
"COc1ccc2oc(C(=O)Nc3ccc(C(=O)Nc4ccc(-c5ncco5)cc4)cc3)c(C)c2c1 [SBC-115,462]",low micro-molar,< 5 µM,–,–,–,–,significant upregulation,significant increase,no significant effect
"COc1ccc2oc(C(=O)Nc3ccc(C(=O)Nc4ccc(-c5nc6ccccc6[nH]5)cc4)cc3)c(C)c2c1 [SBC-115,477]",sub-micro-molar,< 5 µM and 0.19 µM,–,–,4.5,increased solubility,upregulation,–,no significant effect

# The next lines start with results.
"IC50 for inhibition of the PCSK9/LDLR interaction, range in words ([1]; ELISA)","IC50 [1, 3]","IC50 ([1]; increased solubilization conditions (10% DMSO), FIG. 4B, read-out: IC50 of in vitro binding under improved solubility conditions) [µM]","solubility ([2]; 80% acetonitrile, organic solvent or mixture) [µg/mL]",logP [2],"solubility relative to SBC-115,418 [2]",Structure (SMILES),level of LDLR versus DMSO control (LDLR),Fluorescent Dil-LDL uptake (HepG2 cells),"effect on PCSK9 synthesis, processing and secretion (PCSK9)"
low micro-molar,< 5 µM,–,–,–,–,"O=C(Nc1ccc(C(=O)Nc2ccc(-c3ncco3)cc2)c(F)c1)c1cc2ccccc2o1 [SBC-115,448]",significant upregulation,increase,no significant effect
sub-micro-molar,< 5 µM,–,–,–,–,"O=C(Nc1ccc(-c2ncco2)cc1)c1ccc(NC(=O)c2cc3ccccc3o2)cc1 [SBC-115,433]",significant upregulation,increase,no significant effect
